{"source": "PubChem BioAssay (NCI)", "assay_in_all_cases": "growth of human tumour cells (NCI), 384-well format", "key": {"UACC-257 melanoma": {"tested_on": "UACC-257 melanoma"}, "SK-MEL-2 melanoma": {"tested_on": "SK-MEL-2 melanoma"}, "RXF 393 renal": {"tested_on": "RXF 393 renal"}, "OVCAR-8 ovarian": {"tested_on": "OVCAR-8 ovarian"}, "RPMI-8226 leukemia": {"tested_on": "RPMI-8226 leukemia"}, "LOX IMVI melanoma": {"tested_on": "LOX IMVI melanoma"}, "KM12 colon": {"tested_on": "KM12 colon"}, "T-47D breast": {"tested_on": "T-47D breast"}, "MALME-3M melanoma": {"tested_on": "MALME-3M melanoma"}, "HOP-62 NSCLC": {"tested_on": "HOP-62 NSCLC"}, "HS 578T breast": {"tested_on": "HS 578T breast"}, "OVCAR-3 ovarian": {"tested_on": "OVCAR-3 ovarian"}, "K-562 leukemia": {"tested_on": "K-562 leukemia"}}, "note": "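The concentration for 50% growth inhibition is given as GI50. TGI marks complete inhibition of growth.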", "data": [{"smiles": "C[C@]12CCCN1CC1=NNC(=O)c3cc(F)cc4[nH]c2c1c34", "values": [{"measurement": "GI50", "setting": "UACC-257 melanoma", "result": 37.2, "unit": "µM"}, {"measurement": "TGI", "setting": "UACC-257 melanoma", "result": "> 92.2", "unit": "µM"}, {"measurement": "GI50", "setting": "SK-MEL-2 melanoma", "result": 20.4, "unit": "µM"}, {"measurement": "TGI", "setting": "SK-MEL-2 melanoma", "result": 41.6, "unit": "µM"}, {"measurement": "GI50", "setting": "RXF 393 renal", "result": 12.8, "unit": "µM"}, {"measurement": "TGI", "setting": "RXF 393 renal", "result": 30.9, "unit": "µM"}, {"measurement": "GI50", "setting": "OVCAR-8 ovarian", "result": 13, "unit": "µM"}, {"measurement": "TGI", "setting": "OVCAR-8 ovarian", "result": 35.7, "unit": "µM"}, {"measurement": "GI50", "setting": "RPMI-8226 leukemia", "result": 10.5, "unit": "µM"}, {"measurement": "TGI", "setting": "RPMI-8226 leukemia", "result": 22.9, "unit": "µM"}, {"measurement": "GI50", "setting": "LOX IMVI melanoma", "result": 16.3, "unit": "µM"}, {"measurement": "TGI", "setting": "LOX IMVI melanoma", "result": 60.4, "unit": "µM"}, {"measurement": "GI50", "setting": "KM12 colon", "result": 13.2, "unit": "µM"}, {"measurement": "TGI", "setting": "KM12 colon", "result": 42.3, "unit": "µM"}, {"measurement": "GI50", "setting": "T-47D breast", "result": 31.7, "unit": "µM"}, {"measurement": "TGI", "setting": "T-47D breast", "result": "> 86.3", "unit": "µM"}, {"measurement": "GI50", "setting": "MALME-3M melanoma", "result": 34.4, "unit": "µM"}, {"measurement": "TGI", "setting": "MALME-3M melanoma", "result": 83.6, "unit": "µM"}, {"measurement": "GI50", "setting": "HOP-62 NSCLC", "result": 10.9, "unit": "µM"}, {"measurement": "TGI", "setting": "HOP-62 NSCLC", "result": 45.6, "unit": "µM"}, {"measurement": "GI50", "setting": "HS 578T breast", "result": 13.6, "unit": "µM"}, {"measurement": "TGI", "setting": "HS 578T breast", "result": 30.1, "unit": "µM"}, {"measurement": "GI50", "setting": "OVCAR-3 ovarian", "result": 14, "unit": "µM"}, {"measurement": "TGI", "setting": "OVCAR-3 ovarian", "result": 39.9, "unit": "µM"}, {"measurement": "GI50", "setting": "K-562 leukemia", "result": 38.6, "unit": "µM"}, {"measurement": "TGI", "setting": "K-562 leukemia", "result": "> 100", "unit": "µM"}]}]}
